Reference: the supplement of paper PMC10307832

Compound: COc1cc2ncn(-c3cc(OCc4ccccc4C(F)(F)F)c(C(N)=O)s3)c2cc1OC + CC(=O)Nc1cccc(-n2c(=O)n(C3CC3)c(=O)c3c(Nc4ccc(I)cc4F)n(C)c(=O)c(C)c32)c1 [Trametinib] (partner 0.02 µM)
Test: relative viability (nuclei count vs DMSO), 5 days (fraction); higher = more cells survive
Procedure, shortened: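 Relative viability was taken as the ratio of nuclei in treated wells to nuclei in vehicle wells. Lung cancer cell lines in 1536-well plates received compounds by pin tool one day after seeding, either one drug alone or a fixed anchor-drug dose plus five library-drug doses (not always all listed) in √10 steps. Nuclei were counted on 4× images after 5 days of treatment, and values are medians of duplicate plates.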

Cell Line	relative viability (first compound 0.05 µM)	relative viability (first compound 0.1581 µM)	relative viability (first compound 0.5 µM)	relative viability (first compound 1.581 µM)	relative viability (first compound 5 µM)
NCI-H727	0.431	0.377	0.338	0.385	0.396
NCI-H838	0.518	0.523	0.412	0.192	0.0837
NCI-H1355	0.274	0.403	0.326	0.176	0.127
NCI-H1395	1.11	0.977	0.828	0.39	0.287
NCI-H1437	0.577	0.376	0.19	0.205	0.234
NCI-H1648	0.488	0.419	0.295	0.293	0.251
NCI-H1650	0.631	0.515	0.35	0.143	0.139
NCI-H1651	0.86	0.788	0.755	0.593	0.702
NCI-H1666	0.837	0.776	0.653	0.455	0.41
NCI-H1734	0.52	0.558	0.623	0.294	0.163
NCI-H1755	0.83	0.673	0.734	0.519	0.316
NCI-H1792	0.305	0.43	0.275	0.0525	0.0332
NCI-H1793	0.253	0.371	0.373	0.298	0.185
NCI-H1915	0.227	0.172	0.24	0.117	0.0537
NCI-H1944	0.413	0.42	0.337	0.189	0.123
NCI-H1975	0.369	0.192	0.182	0.135	0.155
NCI-H1993	0.473	0.499	0.387	0.345	0.427
NCI-H2009	0.248	0.251	0.287	0.129	0.0949

Cell Line	relative viability (first compound 0.05 µM)	relative viability (first compound 0.1581 µM)	relative viability (first compound 0.5 µM)	relative viability (first compound 1.581 µM)	relative viability (first compound 5 µM)
NCI-H2023	0.502	0.501	0.358	0.0995	0.0739
NCI-H2085	0.332	0.614	0.421	0.221	0.2
NCI-H2087	0.239	0.196	0.143	0.0778	0.111
NCI-H2126	0.535	0.582	0.478	0.27	0.205
NCI-H2170	0.96	0.885	0.246	0.159	0.153
NCI-H2228	0.409	0.268	0.188	0.116	0.136
NCI-H2342	0.794	0.757	0.696	0.607	0.598
NCI-H2347	0.287	0.28	0.299	0.268	0.282
NCI-H2405	0.672	0.412	0.47	0.367	0.311
NCI-H3122	0.209	0.213	0.143	0.135	0.155
PC-3 [JPC-3]	0.697	0.698	0.536	0.407	0.279
PC-14	0.555	0.727	0.281	0.053	0.0472
RERF-LC-KJ	0.935	0.915	0.57	0.456	0.5
SK-LU-1	0.469	0.297	0.324	0.295	0.223
SK-MES-1	0.578	0.623	0.538	0.177	0.228
SW 1573	0.545	0.56	0.41	0.11	0.0977
UMC-11	0.543	0.195	0.194	0.156	0.12
